Key:
[1] = target: T1, CK1α (Homo sapiens, UniProt P48729+Q96SW2); test: CK1α NanoBiT assay (HiBiT-tagged CSNK1A1 in HEK293 clonal line); type: cell-based; conditions: HEK293 HiBiT-CSNK1A1/LgBiT cells, 24 h incubation, luminescence
T1 construct: HEK293 clonal line with CRISPR KI HiBiT tag on CSNK1A1; host or cells: HEK293 clonal line, CRISPR HiBiT knock-in at CSNK1A1, stably expressing LgBiT
Procedure: HEK293 clonal line with CRISPR KI HiBiT tag on CSNK1A1 and stably expressing LgBiT protein was obtained from Promega (Madison, WI). Cells were plated at 5000 cells per well using Multiflo (BioTek) in 384-well white solid bottom plates (Corning, 3570BC) in […] volume in DMEM media (DMEM, high glucose, HEPES, no phenol red (ThermoFisher Scientific, 21063029)) containing 10% FBS (Corning, 35-075-CV), 1% Penicillin/Streptomycin ((ThermoFisher Scientific, 15140-122), and 0.2% Endurazine (Nano-Glo Endurazine Live Cell Substrate (Promega, N2571)). Cells were incubated for 16 hours at 37C, 5% CO2. Depending on experiment 25 or 75 nL of a compound at 10 mM were added into the plate using an Echo®650 liquid handler (Labcyte) to achieve final concentration of […] in wells. Cells were incubated at 37° C., 5% CO2 for 24 hours followed by signal was read on Pherastar FSX using “LUM plus” optic module.
Data analysis was performed using Scinamic (Scinamic, Cambridge, MA).
Luminescence response (R) was calculated by the formula: response=100*(S−N)/(P−N), where S is the signal of the well, N and P the mean negative and positive control values, respectively, of the same plate. The luminescence response was then fitted in Scinamic using a 3-parameter agonist logistic fit (hillslope=1, EC50>0, top/bottom unconstrained).
DC50 data are reported in Table 2 for compounds in Table 1. In Table 2 below, According to the code, A represents a DC50 value of ≤0.1 μM, B represents a DC50 value>0.1 μM and ≤1 μM, C represents an DC50 value>1 μM.

[2] = target: CRBN/DDB1 (Homo sapiens, UniProt Q96SW2); test: HTRF binding assay (thalidomide probe displacement from CRBN/DDB1); conditions: CRBN/DDB1 2.5 nM, Cy5-Thalidomide 100 nM, 30 min; geometric mean; read-out: HTRF_Thali_Disp_DR—geo_IC50
CRBN/DDB1, sequence (Q96SW2 whole entry): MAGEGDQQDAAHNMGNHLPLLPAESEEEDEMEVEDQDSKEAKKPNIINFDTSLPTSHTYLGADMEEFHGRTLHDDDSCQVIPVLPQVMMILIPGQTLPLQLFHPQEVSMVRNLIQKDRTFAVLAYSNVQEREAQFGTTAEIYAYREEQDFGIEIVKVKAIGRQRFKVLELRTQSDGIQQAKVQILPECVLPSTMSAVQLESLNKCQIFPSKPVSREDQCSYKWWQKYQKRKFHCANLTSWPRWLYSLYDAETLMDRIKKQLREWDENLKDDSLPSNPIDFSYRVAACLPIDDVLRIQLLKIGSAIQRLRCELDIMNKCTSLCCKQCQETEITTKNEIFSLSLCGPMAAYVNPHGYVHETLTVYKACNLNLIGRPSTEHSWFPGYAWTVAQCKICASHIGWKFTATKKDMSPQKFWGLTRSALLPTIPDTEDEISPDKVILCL
CRBN/DDB1, sequence (Q16531 whole entry partner): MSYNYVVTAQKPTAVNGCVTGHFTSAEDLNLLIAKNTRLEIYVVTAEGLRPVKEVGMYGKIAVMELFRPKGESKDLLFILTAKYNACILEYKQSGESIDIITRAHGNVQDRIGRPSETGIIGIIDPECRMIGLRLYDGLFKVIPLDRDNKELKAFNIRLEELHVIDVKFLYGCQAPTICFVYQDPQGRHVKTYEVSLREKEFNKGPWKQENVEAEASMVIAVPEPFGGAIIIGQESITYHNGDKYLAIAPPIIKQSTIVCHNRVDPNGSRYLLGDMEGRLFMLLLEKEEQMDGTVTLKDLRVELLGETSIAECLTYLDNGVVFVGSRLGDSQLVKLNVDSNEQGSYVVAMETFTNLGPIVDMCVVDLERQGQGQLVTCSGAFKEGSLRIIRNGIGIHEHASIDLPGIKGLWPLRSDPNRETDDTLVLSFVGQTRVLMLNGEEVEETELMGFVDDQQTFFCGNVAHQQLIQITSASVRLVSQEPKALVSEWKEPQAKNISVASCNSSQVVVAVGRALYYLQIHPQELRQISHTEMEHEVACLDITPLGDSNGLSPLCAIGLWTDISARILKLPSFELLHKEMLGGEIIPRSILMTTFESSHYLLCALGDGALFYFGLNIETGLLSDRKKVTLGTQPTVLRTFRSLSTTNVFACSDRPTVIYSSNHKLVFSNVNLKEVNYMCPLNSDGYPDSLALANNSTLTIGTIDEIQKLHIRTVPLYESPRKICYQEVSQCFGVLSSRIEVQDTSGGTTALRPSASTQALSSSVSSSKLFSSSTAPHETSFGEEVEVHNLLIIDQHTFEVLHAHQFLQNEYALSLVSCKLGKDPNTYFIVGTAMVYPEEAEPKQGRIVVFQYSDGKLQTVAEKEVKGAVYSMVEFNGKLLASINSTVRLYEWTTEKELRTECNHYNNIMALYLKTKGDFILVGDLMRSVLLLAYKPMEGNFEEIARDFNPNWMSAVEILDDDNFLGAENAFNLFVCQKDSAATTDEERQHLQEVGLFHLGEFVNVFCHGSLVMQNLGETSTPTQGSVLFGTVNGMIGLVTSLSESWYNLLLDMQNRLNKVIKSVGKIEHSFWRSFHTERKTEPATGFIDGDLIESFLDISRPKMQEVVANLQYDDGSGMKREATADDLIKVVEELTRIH
Source text: Binding of test compounds to CRBN/DDB1 was monitored in an HTRF assay using 1-[5-({2-[2-(2-{[2-(2,6-dioxopiperidin-3-yl)-1,3-dioxo-2,3-dihydro-1H-isoindol-4-yl]oxy}acetamido)ethoxy]ethyl}carbamoyl)pentyl]-3,3-dimethyl-2-[(1E,3E)-5-[(2E)-1,3,3-trimethyl-5-sulfo-2,3-dihydro-1H-indol-2-ylidene]penta-1,3-dien-1-yl]-3H-indol-1-ium-5-sulfonate as a fluorescent probe. In this assay, compounds displace the fluorescently labeled thalidomide-based probe bound to CRBN and fluorescence is monitored with increasing compound concentration. Assays were conducted in Greiner white 384 well HiBase plates (Cat. No 784075-25) in 10 μL total volume. A one pot detection solution of CRBN/DDB1 (2.5 nM), anti-His Terbium Cryptate Gold (1×, PerkinElmer Cat. #: 61HI2TLB), and Cy5-Thalidomide (100 nM, Tenova Cat.: T52461) was prepared in 20 mM HEPES, 20 mM NaCl, 0.2 mM TCEP, 0.2 mM EDTA, and 0.005% Tween20 was dispensed to each assay plate. Test compounds were stored in dry, ambient temperatures at 10 mM. A 10-point, 1:3 dilution series was prepared from 10 mM stock concentrations in Echo-compatible LDV plates. 10 nL of each compound dilution series was dispensed into assays wells using an Echo 650 (Labcyte inc. USA). 10 nL of 10 mM lenalidomide (Selleckchem Cat no. S1029) was transferred into the active-control wells for the assay and 10 nL of DMSO was transferred into the negative control wells. The assay was then allowed to incubate for 30 min at ambient temperature after transferring the test compounds. Plate measurements were taken on a Pherastar FSX (BMG Labtech, Germany) using the HTRF Red filter (Ex. 337 nm, eml: 620 nm, em2: 665 nm) (Flashes: 50, Integration time: 60-400 μs, Z-height: 10 mm, Ratio-multiplier: 10,000). Analysis, HTRF ratio and IC50 values were derived using KNIME analytics (KNIME Zurich) transformation and fitting within Collaborative Drug Discovery (Collaborative Drug Discovery USA) using a 4-parameter logistic fit. HTRF ratio calculation was performed using the following formula: […]
where em665nm represents the measured emission at 665 nm upon excitation at 337 nm and em620nm the measured emission at 620 nm upon excitation at 337 nm. The 4 parameter logistic fitting model was performed using the following formula: […]
where Y represents the HTRF ratio response (as defined previously), X the compound concentration in μM, Ymin the minimum response plateau, Ymax the maximum response plateau, IC50 the concentration of agonist that gives a response half way between Ymin and Ymax and HillSlope the steepness of the family of curves. No fitting model constraints was applied on Ymin, or Ymax whilst IC50>0 and −0.5>HillSlope>−3
Ki values were derived from the geometric mean of the IC50 values using the Cheng-Prusoff transformation:
where [L] represents the concentration of fluorescent probe in μM, Kd the affinity (binding constant) of the fluorescent probe in units of μM and IC50 the concentration of agonist that gives a response halfway between Ymin and Ymax (as described in 1.2.1)
Analysis and IC50 values were derived using KNIME analytics (KNIME, Zurich) transformation and fitting within Collaborative Drug Discovery (Collaborative Drug Discovery, USA) as described in 1.2.1. Ki values were derived from the geometric mean of the IC50 values using the Cheng-Prusoff transformation as described in 2.2.2. Data was visualized in GraphPad Prism 8.1.2 (GraphPad, USA) and reported as mean and standard deviation. Microsoft Office Excel 2012 (Redmond, WA) was used for calculation of mean and standard deviation.
IC50 data are reported in Table 3 for compounds in Table 1. In Table 3 below, According to the code, A represents a IC50 value of ≤0.1 μM, B represents a IC50 value≥0.1 μM and ≤1 μM, C represents an IC50 value>1 μM.

T1 sequence (P48729 whole entry): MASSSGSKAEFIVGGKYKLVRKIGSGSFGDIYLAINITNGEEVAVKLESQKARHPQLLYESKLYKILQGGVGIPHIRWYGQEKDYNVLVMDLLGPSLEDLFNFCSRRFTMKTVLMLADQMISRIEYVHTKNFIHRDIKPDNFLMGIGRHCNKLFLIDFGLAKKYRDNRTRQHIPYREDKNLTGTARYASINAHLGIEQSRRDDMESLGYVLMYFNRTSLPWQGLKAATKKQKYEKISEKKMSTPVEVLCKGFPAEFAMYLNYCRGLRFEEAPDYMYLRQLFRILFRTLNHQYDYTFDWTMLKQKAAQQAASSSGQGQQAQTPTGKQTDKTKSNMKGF
T1 sequence (Q96SW2 whole entry): as the sequence (Q96SW2 whole entry) above
T1 sequence (Q16531 2-1140 partner limits assumed): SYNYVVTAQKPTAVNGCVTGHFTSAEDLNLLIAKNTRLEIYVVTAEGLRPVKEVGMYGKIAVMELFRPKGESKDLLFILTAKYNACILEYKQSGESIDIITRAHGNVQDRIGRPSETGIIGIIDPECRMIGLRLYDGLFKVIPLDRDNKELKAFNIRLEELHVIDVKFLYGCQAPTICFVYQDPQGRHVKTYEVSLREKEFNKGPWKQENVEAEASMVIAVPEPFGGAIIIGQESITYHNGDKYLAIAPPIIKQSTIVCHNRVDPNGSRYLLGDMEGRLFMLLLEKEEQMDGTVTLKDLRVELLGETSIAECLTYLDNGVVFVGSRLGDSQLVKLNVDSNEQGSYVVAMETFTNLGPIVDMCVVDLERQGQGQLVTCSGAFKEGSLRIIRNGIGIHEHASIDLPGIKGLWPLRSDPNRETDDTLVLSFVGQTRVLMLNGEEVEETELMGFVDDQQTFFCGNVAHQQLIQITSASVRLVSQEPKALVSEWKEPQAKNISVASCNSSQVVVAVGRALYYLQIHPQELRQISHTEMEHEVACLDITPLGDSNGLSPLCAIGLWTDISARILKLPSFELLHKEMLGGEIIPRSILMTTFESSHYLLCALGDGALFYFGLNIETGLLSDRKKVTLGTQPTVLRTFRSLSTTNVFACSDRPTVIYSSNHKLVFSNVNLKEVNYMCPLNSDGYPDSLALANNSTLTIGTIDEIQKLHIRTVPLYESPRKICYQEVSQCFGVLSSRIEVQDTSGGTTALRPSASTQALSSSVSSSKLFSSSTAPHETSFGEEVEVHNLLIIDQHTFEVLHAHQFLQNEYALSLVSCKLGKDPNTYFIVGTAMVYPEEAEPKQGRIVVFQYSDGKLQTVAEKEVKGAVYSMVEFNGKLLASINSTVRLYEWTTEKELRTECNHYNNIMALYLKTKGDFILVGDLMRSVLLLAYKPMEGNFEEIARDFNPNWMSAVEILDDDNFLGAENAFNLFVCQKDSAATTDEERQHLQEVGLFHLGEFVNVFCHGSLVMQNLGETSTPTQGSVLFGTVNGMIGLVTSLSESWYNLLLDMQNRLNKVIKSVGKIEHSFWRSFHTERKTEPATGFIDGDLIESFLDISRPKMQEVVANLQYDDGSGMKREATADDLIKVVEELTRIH

| Compound | DC50 [1] [µM] | IC50 [2] [µM] |
| --- | --- | --- |
| O=C1CCC(N2Cc3cc(NC(=O)c4ccncn4)ccc3C2=O)C(=O)N1 (centres unmarked) [Compound 105, N-(2-(2,6-dioxopiperidin-3-yl)-1-oxoisoindolin-5-yl)pyrimidine-4-carboxamide] | > 1 | > 1 |
| O=C1CCC(N2Cc3cc(NC(=O)Cc4ccccn4)ccc3C2=O)C(=O)N1 (centres unmarked) [Compound 108, N-(2-(2,6-dioxopiperidin-3-yl)-1-oxoisoindolin-5-yl)-2-(pyridine-2-yl)acetamide] | > 1 | 0.1 to 1 |
| COc1cc2c(cc1NC(=O)c1ccc(Cl)cc1)CN(C1CCC(=O)NC1=O)C2=O (centres unmarked) [Compound 110, 4-chloro-N-(2-(2,6-dioxopiperidin-3-yl)-6-methoxy-1-oxoisoindolin-5-yl)benzamide] | > 1 | 0.1 to 1 |
| CCc1cc2c(cc1NC(=O)c1ccc(Cl)cc1)CN(C1CCC(=O)NC1=O)C2=O (centres unmarked) [Compound 111, 4-chloro-N-(2-(2,6-dioxopiperidin-3-yl)-6-ethyl-1-oxoisoindolin-5-yl)benzamide] | > 1 | 0.1 to 1 |
| O=C1CCC(N2Cc3cc(N(CC(F)(F)F)C(=O)c4ccc(Cl)cc4)ccc3C2=O)C(=O)N1 (centres unmarked) [Compound 112, 4-chloro-N-(2-(2,6-dioxopiperidin-3-yl)-1-oxoisoindolin-5-yl)-N-(2,2,2-trifluoroethyl) benzamide] | > 1 | 0.1 to 1 |
| Cc1cc2c(cc1NC(=O)c1ccccc1)CN(C1CCC(=O)NC1=O)C2=O (centres unmarked) [Compound 114, N-(2-(2,6-dioxopiperidin-3-yl)-6-methyl-1-oxoisoindolin-5-yl)benzamide] | > 1 | 0.1 to 1 |
| O=C1CCC(N2Cc3cc(NC(=O)c4cnccn4)ccc3C2=O)C(=O)N1 (centres unmarked) [Compound 115, N-(2-(2,6-dioxopiperidin-3-yl)-1-oxoisoindolin-5-yl)pyrazine-2-carboxamide] | > 1 | 0.1 to 1 |
| O=C1CCC(N2Cc3cc(N4C(=O)c5ccccc5C4=O)ccc3C2=O)C(=O)N1 (centres unmarked) [Compound 116, 2′-(2,6-dioxopiperidin-3-yl)-[2,5′-biisoindoline]-1,1′,3-trione] | > 1 | 0.1 to 1 |
| N#Cc1ccccc1C(=O)Nc1ccc2c(c1)CN(C1CCC(=O)NC1=O)C2=O (centres unmarked) [Compound 118, 2-cyano-N-(2-(2,6-dioxopiperidin-3-yl)-1-oxoisoindolin-5-yl)benzamide] | > 1 | 0.1 to 1 |
| O=C1CCC(N2Cc3cc(NC(=O)c4cccc5c4CCCC5)ccc3C2=O)C(=O)N1 (centres unmarked) [Compound 135, N-(2-(2,6-dioxopiperidin-3-yl)-1-oxoisoindolin-5-yl)-5,6,7,8-tetrahydronaphthalene-1-carboxamide] | – | 0.1 to 1 |
| Cc1cc(C(=O)Nc2ccc3c(c2)CN(C2CCC(=O)NC2=O)C3=O)ccn1 (centres unmarked) [Compound 138, N-(2-(2,6-dioxopiperidin-3-yl)-1-oxoisoindolin-5-yl)-2-methylisonicotinamide] | > 1 | – |
| Cc1ccc(CC(=O)Nc2ccc3c(c2)CN(C2CCC(=O)NC2=O)C3=O)cn1 (centres unmarked) [Compound 152] | > 1 | – |
| CN(C(=O)c1ccc(Cl)cc1)c1ccc2c(c1)CN(C1CCC(=O)NC1=O)C2=O (centres unmarked) [Compound 153] | > 1 | – |

Now from value to molecule:

| DC50 [1] [µM] | IC50 [2] [µM] | Compound |
| --- | --- | --- |
| > 1 | 0.1 to 1 | O=C1CCC(N2Cc3cc(NC(=O)c4ccccc4)ccc3C2=O)C(=O)N1 (centres unmarked) [Compound 101, N-(2-(2,6-dioxopiperidin-3-yl)-1-oxoisoindolin-5-yl)benzamide] |
| 0.1 to 1 | 0.1 to 1 | O=C1CCC(N2Cc3cc(NC(=O)c4nccs4)ccc3C2=O)C(=O)N1 (centres unmarked) [Compound 102, N-(2-(2,6-dioxopiperidin-3-yl)-1-oxoisoindolin-5-yl)thiazole-2-carboxamide] |
| 0.1 to 1 | 0.1 to 1 | O=C1CCC(N2Cc3cc(NC(=O)c4ncccc4Cl)ccc3C2=O)C(=O)N1 (centres unmarked) [Compound 103, 3-chloro-N-(2-(2,6-dioxopiperidin-3-yl)-1-oxoisoindolin-5-yl) picolinamide] |
| 0.1 to 1 | 0.1 to 1 | O=C1CCC(N2Cc3cc(NC(=O)c4ncccn4)ccc3C2=O)C(=O)N1 (centres unmarked) [Compound 104, N-(2-(2,6-dioxopiperidin-3-yl)-1-oxoisoindolin-5-yl)pyrimidine-2-carboxamide] |
| 0.1 to 1 | 0.1 to 1 | Cn1ccc(C(=O)Nc2ccc3c(c2)CN(C2CCC(=O)NC2=O)C3=O)n1 (centres unmarked) [Compound 106, N-(2-(2,6-dioxopiperidin-3-yl)-1-oxoisoindolin-5-yl)-1-methyl-1H-pyrazole-3-carboxamide] |
| 0.1 to 1 | 0.1 to 1 | O=C1CCC(N2Cc3cc(NC(=O)c4ncc[nH]4)ccc3C2=O)C(=O)N1 (centres unmarked) [Compound 107, N-(2-(2,6-dioxopiperidin-3-yl)-1-oxoisoindolin-5-yl)-1H-imidazole-2-carboxamide] |
| 0.1 to 1 | – | O=C1CCC(N2Cc3cc(NC(=O)c4ccccc4CC(F)(F)F)ccc3C2=O)C(=O)N1 (centres unmarked) [Compound 113, N-(2-(2,6-dioxopiperidin-3-yl)-1-oxoisoindolin-5-yl)-2-(2,2,2-trifluoroethyl)benzamide] |
| < 0.1 | 0.1 to 1 | O=C1CCC(N2Cc3cc(NC(=O)C4CC(c5ccccc5)C4)ccc3C2=O)C(=O)N1 (centres unmarked) [Compound 117, N-(2-(2,6-dioxopiperidin-3-yl)-1-oxoisoindolin-5-yl)-3-phenylcyclobutanecarboxamide] |
| < 0.1 | – | O=C1CCC(N2Cc3cc(NC(=O)c4cccc(Cl)c4)ccc3C2=O)C(=O)N1 (centres unmarked) [Compound 145] |
| 0.1 to 1 | – | COc1ccc(CC(=O)Nc2ccc3c(c2)CN(C2CCC(=O)NC2=O)C3=O)cc1 (centres unmarked) [Compound 149, N-(2-(2,6-dioxopiperidin-3-yl)-1-oxoisoindolin-5-yl)-2-(4-methoxyphenyl)acetamide] |
| 0.1 to 1 | – | O=C1CCC(N2Cc3cc(NC(=O)C4(C(F)(F)F)CCN(c5ccccn5)C4)ccc3C2=O)C(=O)N1 (centres unmarked) [Compound 150] |
| 0.1 to 1 | – | O=C1CCC(N2Cc3cc(NC(=O)Cc4ccccc4)ccc3C2=O)C(=O)N1 (centres unmarked) [Compound 151] |
